What follows are compounds tested on castrated male Sprague-Dawley rats (assay: Anabolic and androgenic activity of SARM panel in castrated male rats, sc 1 mg/d for 14 d). Conditions: 1 mg/d sc 14 d.
Type: in vivo, rat
Method: The in vivo pharmacological activity of each synthetic AR ligand (listed in Table 4, below) was examined in five male Sprague-Dawley rats weighing approximately 200 g. Animals were castrated via a scrotal incision under anesthesia 24 h before drug treatments and received daily sc injections of the compound of interest at a dose rate of 1 mg/d for 14 d. All compounds of interest were freshly dissolved in vehicle containing dimethylsulfoxide (5%, vol/vol) in polyethylene glycol 300 before dose administration. An additional two groups of animals with or without castration received vehicle only and served as castrated or intact control groups, respectively. Animals were killed at the end of the treatment. Plasma samples were collected and stored at −80° C. for future use. The ventral prostate, seminal vesicles, and levator ani muscle were removed, cleared of extraneous tissue, and weighed. All organ weights were normalized to body weight and compared. The weights of prostate and seminal vesicles were used to evaluate androgenic activity, whereas the levator ani muscle weight was used as a measure of anabolic activity. […] The results are graphically depicted in FIGS. 3 and 4.

| SMILES | Levator ani agonism | Ventral prostate weight | Levator ani weight versus intact control |
| --- | --- | --- | --- |
| C[C@](O)(COc1ccc(F)cc1F)C(=O)Nc1ccc([N+](=O)[O-])c(C(F)(F)F)c1 [C-1] | > 75 % of intact control | < 25 % of intact control | – |
| C[C@](O)(COc1ccc(F)c(F)c1)C(=O)Nc1ccc([N+](=O)[O-])c(C(F)(F)F)c1 [C-3] | – | – | same as or in excess of intact control |
| C[C@](O)(COc1ccc(F)c(Cl)c1)C(=O)Nc1ccc([N+](=O)[O-])c(C(F)(F)F)c1 [C-4] | > 75 % of intact control | < 25 % of intact control | – |
| C[C@](O)(COc1ccc(Cl)c(F)c1)C(=O)Nc1ccc([N+](=O)[O-])c(C(F)(F)F)c1 [C-6] | – | – | same as or in excess of intact control |
| C[C@](O)(COc1ccc(Cl)cc1F)C(=O)Nc1ccc([N+](=O)[O-])c(C(F)(F)F)c1 [C-8] | – | – | same as or in excess of intact control |
| C[C@](O)(COc1ccc(Cl)c(Cl)c1)C(=O)Nc1ccc([N+](=O)[O-])c(C(F)(F)F)c1 [C-10] | – | – | same as or in excess of intact control |
| C[C@](O)(COc1ccc([N+](=O)[O-])c(F)c1)C(=O)Nc1ccc([N+](=O)[O-])c(C(F)(F)F)c1 [C-11] | – | – | same as or in excess of intact control |
| C[C@](O)(COc1cc(F)c(F)cc1F)C(=O)Nc1ccc([N+](=O)[O-])c(C(F)(F)F)c1 [C-18] | – | – | same as or in excess of intact control |
| C[C@](O)(COc1cc(Cl)c(Cl)cc1Cl)C(=O)Nc1ccc([N+](=O)[O-])c(C(F)(F)F)c1 [C-22] | > 75 % of intact control | < 25 % of intact control | – |
| C[C@](O)(COc1c(F)c(F)c(F)c(F)c1F)C(=O)Nc1ccc([N+](=O)[O-])c(C(F)(F)F)c1 [C-23] | > 75 % of intact control | < 25 % of intact control | – |
| C[C@](O)(COc1ccc(F)cc1)C(=O)Nc1ccc([N+](=O)[O-])c(C(F)(F)F)c1 [S-1] | > 75 % of intact control | < 25 % of intact control | – |
